# Source: ChEMBL document CHEMBL1687697 (ACS Med Chem Lett, 2010)
# Activity calls are given as the source filed them. No cut-off for these calls is given here.
# Legend:
# DU-145 [1] = assay: Effect on JAK2 protein level in human DU145 cells at 0.1 to 2 uM after 2 hrs by Western blot analysis; type: functional, cell-based
# DU-145 [2] = assay: Cell cycle arrest in human DU145 cells assessed as accumulation in S phase at 1 uM after 24 hrs by FACS flow cytometry; type: functional
# [3] = molecular target: RAC-alpha serine/threonine-protein kinase (Homo sapiens, UniProt P31749); assay: Inhibition of Akt1 after 60 mins by radiometric assay
# DU-145 [4] = assay: Effect on JAK2 protein level in human DU145 cells at 0.1 to 2 uM after 24 hrs by Western blot analysis; type: functional, cell-based
# DU-145 [5] = assay: Effect on phosphorylated JAK1 protein level in human DU145 cells at 0.1 to 2 uM after 24 hrs by Western blot analysis; type: functional, cell-based
# DU-145 [6] = assay: Induction of apoptosis in human DU145 cells assessed as necrotic cells at 10 uM after 72 hrs by AnnexinV-propidium iodide based FACS flow cytometry; type: functional
# DU-145 [7] = assay: Cell cycle arrest in human DU145 cells assessed as accumulation in S phase at 0.5 uM after 24 hrs by FACS flow cytometry; type: functional
# DU-145 [8] = assay: Induction of apoptosis in human DU145 cells assessed as viable cells at 5 uM after 72 hrs by AnnexinV-propidium iodide based FACS flow cytometry; type: functional; conditions: DU-145, 72 h, read-out: Activity
# DU-145 [9] = assay: Induction of apoptosis in human DU145 cells assessed as late apoptotic cells at 1 uM after 72 hrs by AnnexinV-propidium iodide based FACS flow cytometry; type: functional
# [10] = molecular target: Mitogen-activated protein kinase 1 (Homo sapiens, UniProt P28482); assay: Inhibition of Erk2 after 60 mins by radiometric assay
# A549 = assay: Antiproliferative activity against human A549 cells after 72 hrs by MTT assay; type: functional, cell-based; conditions: A549, 72 h
# DU-145 [11] = assay: Effect on phosphorylated-JAK2 protein level in human DU145 cells at 0.1 to 2 uM after 2 hrs by Western blot analysis; type: functional, cell-based
# DU-145 [12] = assay: Effect on Tyr527 phosphorylated-Src protein level in human DU145 cells at 0.1 to 2 uM after 24 hrs by Western blot analysis; type: functional, cell-based
# [13] = molecular target: 3-phosphoinositide-dependent protein kinase 1 (Homo sapiens, UniProt O15530); assay: Inhibition of PDK1 after 60 mins by radiometric assay
# DU-145 [14] = assay: Decrease in Bcl-Xl protein level in human DU145 cells at 0.1 to 2 uM after 2 hrs by Western blot analysis; type: functional, cell-based
# DU-145 [15] = assay: Cell cycle arrest in human DU145 cells assessed as accumulation in G2/M phase at 0.5 uM after 24 hrs by FACS flow cytometry; type: functional
# DU-145 [16] = assay: Effect on phosphorylated JAK1 protein level in human DU145 cells at 0.1 to 2 uM after 2 hrs by Western blot analysis; type: functional, cell-based
# A-431 = assay: Antiproliferative activity against human A431 cells after 72 hrs by MTT assay; type: functional, cell-based; conditions: A-431, 72 h
# Aurora kinase A = Aurora kinase A (Homo sapiens, UniProt O14965); assay: Inhibition of Aurora-A after 60 mins by radiometric assay
# DU-145 [17] = assay: Effect on Tyr416 phosphorylated-Src protein level in human DU145 cells at 0.1 to 2 uM after 24 hrs by Western blot analysis; type: functional, cell-based
# DU-145 [18] = assay: Cell cycle arrest in human DU145 cells assessed as accumulation in G2/M phase at 1 uM after 24 hrs by FACS flow cytometry; type: functional
# DU-145 [19] = assay: Induction of apoptosis in human DU145 cells assessed as late apoptotic cells at 5 uM after 72 hrs by AnnexinV-propidium iodide based FACS flow cytometry; type: functional
# HT-29 = assay: Antiproliferative activity against human HT-29 cells after 72 hrs by MTT assay; type: functional, cell-based; conditions: HT-29, 72 h
# DU-145 [20] = assay: Decrease in cyclin D1 protein level in human DU145 cells at 0.1 to 2 uM after 2 hrs by Western blot analysis; type: functional, cell-based
# DU-145 [21] = assay: Decrease in c-Myc protein level in human DU145 cells at 0.1 to 2 uM after 2 hrs by Western blot analysis; type: functional, cell-based
# [22] = molecular target: Tyrosine-protein kinase ABL1 (Homo sapiens, UniProt P00519); assay: Inhibition of Abl1 after 60 mins by radiometric assay
# DU-145 [23] = assay: Antiproliferative activity against human DU145 cells after 72 hrs by MTT assay; type: functional, cell-based; conditions: DU-145, 72 h
# DU-145 [24] = assay: Effect on Tyr416 phosphorylated-Src protein level in human DU145 cells at 0.1 to 2 uM after 2 hrs by Western blot analysis; type: functional, cell-based
# DU-145 [25] = assay: Effect on Src protein level in human DU145 cells at 0.1 to 2 uM after 24 hrs by Western blot analysis; type: functional, cell-based
# [26] = molecular target: Signal transducer and activator of transcription 3 (Homo sapiens) (UniProt P40763); assay: Inhibition of STAT3 phosphorylation at Tyr705 in human DU145 cells after 24 hrs by Western blot analysis; type: cell-based; conditions: DU-145
# [27] = Inhibition of MEK after 60 mins by radiometric assay
# Angiopoietin-1 receptor = Angiopoietin-1 receptor (Homo sapiens, UniProt Q02763); assay: Inhibition of TIE2 after 60 mins by radiometric assay
# [28] = molecular target: Protein kinase C alpha type (Homo sapiens, UniProt P17252); assay: Inhibition of PKC-alpha after 60 mins by radiometric assay
# DU-145 [29] = assay: Effect on JAK1 protein level in human DU145 cells at 0.1 to 2 uM after 24 hrs by Western blot analysis; type: functional, cell-based
# HeLa = assay: Antiproliferative activity against human HeLa cells after 72 hrs by MTT assay; type: functional, cell-based
# [30] = molecular target: Serine/threonine-protein kinase B-raf (Homo sapiens, UniProt P15056, V600E); assay: Inhibition of B-Raf V600E mutant after 60 mins by radiometric assay
# Serine/threonine-protein kinase B-raf, sequence (P15056 2-766 V600E limits assumed): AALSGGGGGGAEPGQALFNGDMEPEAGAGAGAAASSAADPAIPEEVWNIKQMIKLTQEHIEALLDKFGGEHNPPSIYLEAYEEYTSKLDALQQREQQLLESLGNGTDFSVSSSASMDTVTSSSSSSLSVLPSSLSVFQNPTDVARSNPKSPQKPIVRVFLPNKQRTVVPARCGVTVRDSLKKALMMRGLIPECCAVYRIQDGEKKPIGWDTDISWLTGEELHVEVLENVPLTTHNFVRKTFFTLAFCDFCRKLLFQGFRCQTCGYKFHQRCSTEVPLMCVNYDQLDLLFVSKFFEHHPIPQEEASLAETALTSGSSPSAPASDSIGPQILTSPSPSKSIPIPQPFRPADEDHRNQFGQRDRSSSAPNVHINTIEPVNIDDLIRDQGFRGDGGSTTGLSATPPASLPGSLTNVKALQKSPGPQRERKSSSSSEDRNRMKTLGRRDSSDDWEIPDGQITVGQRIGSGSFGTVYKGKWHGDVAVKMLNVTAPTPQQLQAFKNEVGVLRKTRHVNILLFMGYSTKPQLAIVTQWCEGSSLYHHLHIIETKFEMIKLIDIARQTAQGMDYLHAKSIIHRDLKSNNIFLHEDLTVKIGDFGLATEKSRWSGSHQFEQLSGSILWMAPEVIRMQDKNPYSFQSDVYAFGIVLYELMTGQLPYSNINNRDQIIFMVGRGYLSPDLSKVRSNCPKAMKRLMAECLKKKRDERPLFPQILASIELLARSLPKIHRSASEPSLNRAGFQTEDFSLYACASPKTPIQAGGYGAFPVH
# Mitogen-activated protein kinase 1, sequence (P28482 whole entry): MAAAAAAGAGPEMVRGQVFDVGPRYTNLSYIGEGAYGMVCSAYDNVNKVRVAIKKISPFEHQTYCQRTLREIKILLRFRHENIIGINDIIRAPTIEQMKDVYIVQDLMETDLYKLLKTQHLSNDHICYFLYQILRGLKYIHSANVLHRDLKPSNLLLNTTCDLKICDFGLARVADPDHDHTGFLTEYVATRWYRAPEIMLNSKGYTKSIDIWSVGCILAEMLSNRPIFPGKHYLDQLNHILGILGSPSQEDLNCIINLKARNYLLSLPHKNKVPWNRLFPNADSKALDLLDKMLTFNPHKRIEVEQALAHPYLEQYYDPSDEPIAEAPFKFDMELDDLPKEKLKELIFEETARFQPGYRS
# RAC-alpha serine/threonine-protein kinase, sequence (P31749 whole entry): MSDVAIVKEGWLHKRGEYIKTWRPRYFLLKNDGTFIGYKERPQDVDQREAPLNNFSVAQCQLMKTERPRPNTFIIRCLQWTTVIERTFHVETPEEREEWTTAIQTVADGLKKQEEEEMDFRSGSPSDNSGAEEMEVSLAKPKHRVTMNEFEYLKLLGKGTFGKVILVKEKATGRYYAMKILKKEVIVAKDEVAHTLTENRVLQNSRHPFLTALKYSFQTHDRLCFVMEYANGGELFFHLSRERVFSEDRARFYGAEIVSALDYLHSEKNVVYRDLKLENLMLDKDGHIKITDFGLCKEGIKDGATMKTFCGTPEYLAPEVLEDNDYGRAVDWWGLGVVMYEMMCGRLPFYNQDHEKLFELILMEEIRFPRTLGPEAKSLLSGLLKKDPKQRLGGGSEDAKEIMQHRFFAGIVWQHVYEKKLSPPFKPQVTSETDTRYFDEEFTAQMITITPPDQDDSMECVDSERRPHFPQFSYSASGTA
# Signal transducer and activator of transcription 3 (Homo sapiens), sequence (P40763 whole entry): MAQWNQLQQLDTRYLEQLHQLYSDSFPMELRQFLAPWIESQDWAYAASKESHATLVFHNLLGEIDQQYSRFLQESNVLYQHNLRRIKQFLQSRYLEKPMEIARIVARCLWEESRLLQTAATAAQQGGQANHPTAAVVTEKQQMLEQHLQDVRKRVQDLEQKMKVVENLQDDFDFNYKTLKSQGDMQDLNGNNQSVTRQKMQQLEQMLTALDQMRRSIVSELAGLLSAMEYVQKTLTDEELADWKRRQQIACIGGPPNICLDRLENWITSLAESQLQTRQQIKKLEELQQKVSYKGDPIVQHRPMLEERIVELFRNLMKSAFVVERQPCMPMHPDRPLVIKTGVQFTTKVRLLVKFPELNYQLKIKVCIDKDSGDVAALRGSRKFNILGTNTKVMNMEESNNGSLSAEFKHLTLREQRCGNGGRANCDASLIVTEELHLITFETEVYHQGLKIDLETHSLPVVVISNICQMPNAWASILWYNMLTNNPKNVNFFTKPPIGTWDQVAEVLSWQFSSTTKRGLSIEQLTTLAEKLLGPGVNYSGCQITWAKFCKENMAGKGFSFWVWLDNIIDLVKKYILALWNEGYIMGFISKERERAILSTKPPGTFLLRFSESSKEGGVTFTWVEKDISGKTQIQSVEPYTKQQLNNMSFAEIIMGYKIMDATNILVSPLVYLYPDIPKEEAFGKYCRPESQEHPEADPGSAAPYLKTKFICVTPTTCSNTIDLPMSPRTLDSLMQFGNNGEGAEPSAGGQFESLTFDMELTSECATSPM
# Tyrosine-protein kinase ABL1, sequence (P00519 whole entry): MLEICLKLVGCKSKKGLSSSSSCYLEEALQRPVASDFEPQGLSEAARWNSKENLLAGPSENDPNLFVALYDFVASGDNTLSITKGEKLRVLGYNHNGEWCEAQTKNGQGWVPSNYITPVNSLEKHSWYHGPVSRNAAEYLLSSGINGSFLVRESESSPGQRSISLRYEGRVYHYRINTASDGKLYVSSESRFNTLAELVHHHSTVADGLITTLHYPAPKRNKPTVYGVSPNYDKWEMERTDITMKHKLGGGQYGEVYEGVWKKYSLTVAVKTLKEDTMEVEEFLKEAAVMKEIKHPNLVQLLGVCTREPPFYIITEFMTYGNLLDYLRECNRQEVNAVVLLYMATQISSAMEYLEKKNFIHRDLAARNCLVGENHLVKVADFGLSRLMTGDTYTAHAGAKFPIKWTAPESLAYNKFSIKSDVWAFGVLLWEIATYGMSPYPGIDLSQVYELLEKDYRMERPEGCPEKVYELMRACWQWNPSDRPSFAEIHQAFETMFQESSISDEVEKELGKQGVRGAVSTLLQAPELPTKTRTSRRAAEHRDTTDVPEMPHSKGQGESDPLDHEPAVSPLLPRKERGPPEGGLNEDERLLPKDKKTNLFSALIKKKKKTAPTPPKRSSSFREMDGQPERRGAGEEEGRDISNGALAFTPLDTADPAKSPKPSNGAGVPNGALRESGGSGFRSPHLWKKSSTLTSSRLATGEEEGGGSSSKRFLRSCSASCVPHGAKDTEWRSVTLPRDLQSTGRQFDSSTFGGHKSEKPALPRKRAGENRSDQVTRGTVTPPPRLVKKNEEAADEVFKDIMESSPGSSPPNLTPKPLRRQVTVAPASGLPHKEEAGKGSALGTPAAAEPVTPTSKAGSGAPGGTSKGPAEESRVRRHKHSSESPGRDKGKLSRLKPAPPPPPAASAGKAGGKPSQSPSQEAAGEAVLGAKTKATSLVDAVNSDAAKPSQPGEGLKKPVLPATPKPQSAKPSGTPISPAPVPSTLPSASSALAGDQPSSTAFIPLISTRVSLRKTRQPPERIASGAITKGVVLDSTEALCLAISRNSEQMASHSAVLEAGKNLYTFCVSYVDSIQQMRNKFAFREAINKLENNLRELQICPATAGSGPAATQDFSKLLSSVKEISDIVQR
# 3-phosphoinositide-dependent protein kinase 1, sequence (O15530 whole entry): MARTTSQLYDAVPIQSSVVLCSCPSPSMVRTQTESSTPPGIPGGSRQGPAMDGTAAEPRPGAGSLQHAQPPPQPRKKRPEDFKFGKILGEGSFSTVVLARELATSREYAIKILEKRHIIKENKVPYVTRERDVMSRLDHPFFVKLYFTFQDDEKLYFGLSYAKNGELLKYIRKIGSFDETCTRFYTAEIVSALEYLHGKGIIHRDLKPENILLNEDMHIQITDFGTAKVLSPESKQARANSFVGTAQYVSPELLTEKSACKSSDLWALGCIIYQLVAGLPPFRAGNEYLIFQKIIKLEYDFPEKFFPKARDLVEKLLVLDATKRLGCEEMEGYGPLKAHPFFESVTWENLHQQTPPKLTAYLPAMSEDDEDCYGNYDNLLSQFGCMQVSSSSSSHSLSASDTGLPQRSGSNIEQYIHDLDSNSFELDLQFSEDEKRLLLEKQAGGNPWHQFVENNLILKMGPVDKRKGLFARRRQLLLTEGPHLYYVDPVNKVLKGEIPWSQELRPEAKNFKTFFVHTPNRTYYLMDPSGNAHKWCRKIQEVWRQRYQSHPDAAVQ
compound,measurement,setting,value
O=C(Nc1ccc([N+](=O)[O-])cc1Cl)c1cc(Cl)ccc1O [NICLOSAMIDE],Activity,DU-145 [1],inactive
same,Activity,DU-145 [2],16.82%
same,IC50,[3],59.4 µM
same,Activity,DU-145 [4],inactive
same,Activity,DU-145 [5],inactive
same,Activity,DU-145 [6],2.43%
same,Activity,DU-145 [7],32.84%
same,viability at 5 µM,DU-145 [8],61.9%
same,Activity,DU-145 [9],8.16%
same,IC50,[10],> 100 µM
same,IC50,A549,3 µM
same,Activity,DU-145 [11],inactive
same,Activity,DU-145 [12],inactive
same,IC50,[13],83.9 µM
same,Activity,DU-145 [14],Active
same,Activity,DU-145 [15],9.76%
same,Activity,DU-145 [16],inactive
same,IC50,A-431,8.8 µM
same,IC50,Aurora kinase A,54.1 µM
same,Activity,DU-145 [17],inactive
same,Activity,DU-145 [18],7.83%
same,Activity,DU-145 [19],25.41%
same,IC50,HT-29,7.2 µM
same,Activity,DU-145 [20],Active
same,Activity,DU-145 [21],Active
same,IC50,[22],> 100 µM
same,IC50,DU-145 [23],0.7 µM
same,Activity,DU-145 [24],inactive
same,Activity,DU-145 [25],inactive
same,inhibition,[26],Dose-dependent effect
same,IC50,[27],> 100 µM
same,IC50,Angiopoietin-1 receptor,67.8 µM
same,IC50,[28],> 100 µM
same,Activity,DU-145 [29],inactive
same,IC50,HeLa,1.4 µM
same,IC50,[30],> 100 µM
